{"source": "ChEMBL document CHEMBL1201862", "about": "“PubChem BioAssay data set” (2004)", "key": {"[1]": {"assay": "inhibitors of clade B AD8 Env fusion, dose response, cell-based, cherry-pick (AID 652062);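 note: potency is for inhibitors of fusion seen as a drop in luminescence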", "assay_type": "functional"}, "[2]": {"assay": "control 3'UTR Renilla luciferase suppression, dose response, counter-screen for Shn3 inhibitor project, cell-based, Clone20-Shn3RL, cherry-picked (AID 624133)", "assay_type": "functional"}, "[3]": {"assay": "Shn3 3'UTR reporter inhibitors, dose response, cell-based, Clone20 osteoblasts, firefly luciferase, cherry-picked (AID 624132)", "assay_type": "functional"}, "[4]": {"assay": "cytotoxicity in HPDE-C7 cells, cell-based, fluorescence, HTS (AID 430)", "assay_type": "functional", "conditions": "Homo sapiens"}, "HEK293": {"system": "HEK293", "assay": "inhibitors of LMP1-driven NF-kB reporter, dose response, cell-based, HEK293, luciferase, cherry-pick (AID 588343)", "assay_type": "functional", "conditions": "Homo sapiens"}, "[5]": {"assay": "microbe, parasite or virus in culture", "assay_type": "functional", "conditions": "Mycobacterium tuberculosis"}, "[6]": {"assay": "CEM21 lymphoblast cell cytotoxicity, dose response, cytotoxicity control for viral fusion inhibitor project, CellTiter-Glo luminescence, cherry-picked (AID 652042);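 note: potency for signal decrease meaning cytotoxicity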", "assay_type": "functional, cell-based"}, "[7]": {"assay": "cytotoxicity in KRAS-transformed pancreatic duct cells, primary screen, cell-based, fluorescence, HTS (AID 431);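 note: cell line used: HPDE-C7K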", "assay_type": "functional", "conditions": "Homo sapiens"}, "[8]": {"assay": "HepG2 cell cytotoxicity, dose response, cytotoxicity control for Shn3 inhibitor project, CellTiter-Glo, cherry-picked (AID 624134)", "assay_type": "functional, cell-based"}, "[9]": {"assay": "ZM109 Env clade C HIV-1 fusion inhibitors, dose response, HeLa effector, CEM target cells, luciferase, cherry-pick (AID 652058)", "assay_type": "functional, cell-based"}, "[10]": {"assay": "inhibitors of HIV Env-driven cell fusion, dose response, cherry-pick (AID 652057)", "assay_type": "functional, cell-based"}, "cells": {"assay": "cells", "assay_type": "functional"}, "[11]": {"biological_target": "G-protein coupled receptor 55 (Homo sapiens, UniProt Q9Y2T6)", "sequence (Q9Y2T6 whole entry)": "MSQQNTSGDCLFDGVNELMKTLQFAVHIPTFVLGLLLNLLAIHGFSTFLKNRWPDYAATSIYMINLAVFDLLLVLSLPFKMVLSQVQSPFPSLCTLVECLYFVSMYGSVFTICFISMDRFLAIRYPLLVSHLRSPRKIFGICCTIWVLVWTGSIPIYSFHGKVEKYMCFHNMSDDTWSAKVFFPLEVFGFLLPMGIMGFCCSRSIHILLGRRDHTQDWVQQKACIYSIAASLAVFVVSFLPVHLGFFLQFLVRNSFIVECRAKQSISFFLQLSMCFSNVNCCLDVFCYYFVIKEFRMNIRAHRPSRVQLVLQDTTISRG", "assay": "GPR55 agonists via beta-arrestin recruitment, primary screen, imaging, U2OS cells, beta-arrestin-GFP redistribution (AID 1961)", "assay_type": "functional"}, "Cytochrome P450 3A4": {"biological_target": "Cytochrome P450 3A4 (Homo sapiens, UniProt P08684)", "sequence (P08684 whole entry)": "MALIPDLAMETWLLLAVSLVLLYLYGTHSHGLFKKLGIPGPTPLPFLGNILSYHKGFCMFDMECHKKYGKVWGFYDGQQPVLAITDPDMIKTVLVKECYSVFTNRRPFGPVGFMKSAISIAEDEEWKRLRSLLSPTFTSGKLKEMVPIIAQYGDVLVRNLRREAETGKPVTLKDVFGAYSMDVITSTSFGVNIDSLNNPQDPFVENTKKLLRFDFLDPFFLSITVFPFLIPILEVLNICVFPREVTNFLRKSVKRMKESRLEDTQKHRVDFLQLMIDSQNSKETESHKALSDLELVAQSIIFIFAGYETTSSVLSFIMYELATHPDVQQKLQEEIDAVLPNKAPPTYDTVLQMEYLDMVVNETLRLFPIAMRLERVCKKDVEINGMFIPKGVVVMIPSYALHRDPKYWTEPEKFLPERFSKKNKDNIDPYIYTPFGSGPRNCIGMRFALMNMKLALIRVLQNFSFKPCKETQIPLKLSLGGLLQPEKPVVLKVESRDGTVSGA", "conditions": "Potency"}, "[12]": {"biological_target": "Eukaryotic translation initiation factor 4E (Mus musculus, UniProt P63073)", "sequence (P63073 whole entry)": "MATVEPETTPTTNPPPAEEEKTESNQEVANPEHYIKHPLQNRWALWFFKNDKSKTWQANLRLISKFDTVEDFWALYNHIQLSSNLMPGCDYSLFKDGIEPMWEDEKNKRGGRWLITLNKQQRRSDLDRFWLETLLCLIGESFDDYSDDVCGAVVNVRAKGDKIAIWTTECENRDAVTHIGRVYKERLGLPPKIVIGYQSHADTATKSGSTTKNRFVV", "assay": "eIF4E–eIF4G protein interaction inhibitors, dose response, biochemical, TR-FRET (AID 855);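 note: potency for disrupting eIF4E binding to eIF4GI seen as loss of FRET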", "assay_type": "functional"}, "Leucine aminopeptidase": {"biological_target": "T1, Leucine aminopeptidase (Plasmodium falciparum 3D7, UniProt Q8IL11)", "T1 sequence (Q8IL11 whole entry)": "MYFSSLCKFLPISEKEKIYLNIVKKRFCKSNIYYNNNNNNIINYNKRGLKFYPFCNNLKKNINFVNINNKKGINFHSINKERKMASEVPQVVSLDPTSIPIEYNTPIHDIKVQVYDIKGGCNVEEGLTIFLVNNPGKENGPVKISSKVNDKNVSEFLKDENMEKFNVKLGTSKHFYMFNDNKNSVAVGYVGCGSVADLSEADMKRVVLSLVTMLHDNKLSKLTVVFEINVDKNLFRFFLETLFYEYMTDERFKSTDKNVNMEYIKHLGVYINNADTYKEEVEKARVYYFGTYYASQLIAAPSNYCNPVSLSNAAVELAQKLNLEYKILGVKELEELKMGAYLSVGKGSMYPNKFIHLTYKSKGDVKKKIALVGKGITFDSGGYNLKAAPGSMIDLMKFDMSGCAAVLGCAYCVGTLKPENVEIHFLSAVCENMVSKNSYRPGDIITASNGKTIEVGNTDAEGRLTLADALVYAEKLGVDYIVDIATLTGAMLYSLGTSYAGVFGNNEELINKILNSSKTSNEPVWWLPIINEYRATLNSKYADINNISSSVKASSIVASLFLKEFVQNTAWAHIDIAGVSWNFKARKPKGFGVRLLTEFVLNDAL", "assay": "P. falciparum M17LAP inhibitors, primary screen, biochemical, fluorogenic H-Leu-NHMec substrate, 1536-well (AID 1619)", "assay_type": "functional"}, "[13]": {"biological_target": "Induced myeloid leukemia cell differentiation protein Mcl-1 (Homo sapiens, UniProt Q07820)", "sequence (Q07820 whole entry)": "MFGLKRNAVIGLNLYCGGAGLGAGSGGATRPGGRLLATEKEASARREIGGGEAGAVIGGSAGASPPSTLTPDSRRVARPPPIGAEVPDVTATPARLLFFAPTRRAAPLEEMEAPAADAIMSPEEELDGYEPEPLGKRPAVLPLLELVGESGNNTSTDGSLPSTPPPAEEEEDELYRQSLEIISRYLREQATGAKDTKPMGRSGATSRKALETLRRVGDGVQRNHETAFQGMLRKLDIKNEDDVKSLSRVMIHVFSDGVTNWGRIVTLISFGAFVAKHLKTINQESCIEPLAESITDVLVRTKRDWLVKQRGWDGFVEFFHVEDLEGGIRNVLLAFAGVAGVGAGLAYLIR", "assay_type": "functional"}, "[14]": {"biological_target": "DNA dC->dU-editing enzyme APOBEC-3G (Homo sapiens, UniProt Q9HC16)", "sequence (Q9HC16 whole entry)": "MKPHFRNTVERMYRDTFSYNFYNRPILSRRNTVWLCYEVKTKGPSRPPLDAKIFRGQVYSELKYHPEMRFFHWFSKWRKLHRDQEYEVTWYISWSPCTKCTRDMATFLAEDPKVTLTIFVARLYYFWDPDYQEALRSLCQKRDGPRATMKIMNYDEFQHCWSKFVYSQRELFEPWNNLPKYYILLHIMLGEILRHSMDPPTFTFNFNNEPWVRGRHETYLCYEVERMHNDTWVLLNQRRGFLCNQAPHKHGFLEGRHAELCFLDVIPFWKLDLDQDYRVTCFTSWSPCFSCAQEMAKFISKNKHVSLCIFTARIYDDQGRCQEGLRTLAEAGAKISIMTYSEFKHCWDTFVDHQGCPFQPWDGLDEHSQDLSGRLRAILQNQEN", "assay": "Dose Response confirmation of small molecule APOBEC3G DNA Deaminase Inhibitors via a fluorescence-based single-stranded DNA deaminase assay. [Related pubchem assays (depositor defined):AID493012, AID493028]", "assay_type": "functional"}, "[15]": {"biological_target": "DNA dC->dU-editing enzyme APOBEC-3A (Homo sapiens, UniProt P31941)", "sequence (P31941 whole entry)": "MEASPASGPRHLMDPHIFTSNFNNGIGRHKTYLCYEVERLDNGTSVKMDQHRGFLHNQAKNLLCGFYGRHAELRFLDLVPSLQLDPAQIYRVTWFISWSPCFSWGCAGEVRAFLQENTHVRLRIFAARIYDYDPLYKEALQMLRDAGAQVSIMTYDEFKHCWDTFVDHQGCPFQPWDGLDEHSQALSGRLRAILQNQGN", "assay": "APOBEC3A DNA deaminase inhibitors, dose response, biochemical (AID 504722)", "assay_type": "functional"}, "[16]": {"biological_target": "Glucose-6-phosphate 1-dehydrogenase (Homo sapiens, UniProt P11413)", "sequence (P11413 whole entry)": "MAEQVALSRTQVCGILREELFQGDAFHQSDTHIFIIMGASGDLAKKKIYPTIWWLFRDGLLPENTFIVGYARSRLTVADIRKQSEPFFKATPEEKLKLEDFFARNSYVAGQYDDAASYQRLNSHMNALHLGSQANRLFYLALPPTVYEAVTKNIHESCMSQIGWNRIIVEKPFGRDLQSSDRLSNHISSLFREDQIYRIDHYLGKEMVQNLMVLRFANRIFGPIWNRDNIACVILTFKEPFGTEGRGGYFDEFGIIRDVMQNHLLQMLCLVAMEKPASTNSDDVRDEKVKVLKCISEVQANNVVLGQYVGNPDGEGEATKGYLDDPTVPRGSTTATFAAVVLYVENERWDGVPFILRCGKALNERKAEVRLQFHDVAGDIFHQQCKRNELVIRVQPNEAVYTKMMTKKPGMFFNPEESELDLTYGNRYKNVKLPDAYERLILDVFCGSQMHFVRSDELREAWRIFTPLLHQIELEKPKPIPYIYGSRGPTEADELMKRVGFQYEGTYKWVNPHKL", "assay": "human G6PD enzyme inhibitors, dose response, selectivity assay for P. falciparum G6PD inhibitor project, biochemical, fluorescence (AID 504792)", "assay_type": "functional"}, "[17]": {"assay": "growth suppression of beta-catenin-knockout colon cells, dose response, cell-based, HCT116, human colon tumor (AID 1045);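 note: HCT116 colon tumor cells with beta catenin knocked out; cells exposed to compound for 60 hours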", "assay_type": "functional"}, "[18]": {"assay": "growth suppression of PTEN-null colon cells, dose response, cell-based, HCT116 PTEN knockout (AID 1047);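 note: HCT116 colon tumor cells with PTEN knocked out; cells exposed to compound for 60 hours before readout; potency for loss of cell viability measured by luminescence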", "assay_type": "functional"}}, "note": "Activity calls are given as the source filed them.", "data": [{"compound": "Cc1ccc2[nH]c3c(N4CCN(Cc5ccccc5)CC4)ncnc3c2c1", "values": [{"measurement": "AC50", "setting": "[1]", "result": "19.5 µM (active)"}, {"measurement": "AC50", "setting": "[2]", "result": "20.3 µM (active)"}, {"measurement": "AC50", "setting": "[3]", "result": "4.18 µM (active)"}, {"measurement": "EC50", "setting": "[4]", "result": "14.1 µM (active)"}, {"measurement": "AC50", "setting": "HEK293", "result": "11.8 µM (active)"}, {"measurement": "CC50", "setting": "[5]", "result": "35.2 µM (active)"}, {"measurement": "AC50", "setting": "[6]", "result": "26.2 µM (active)"}, {"measurement": "EC50", "setting": "[7]", "result": "16.8 µM (active)"}, {"measurement": "AC50", "setting": "[8]", "result": "30.8 µM (active)"}, {"measurement": "AC50", "setting": "[9]", "result": "0.671 µM (active)"}, {"measurement": "AC50", "setting": "[10]", "result": "8.98 µM (active)"}]}, {"compound": "Cc1cccc(OC(=O)c2ccc3nccnc3c2)c1", "values": [{"measurement": "IC50", "setting": "cells", "result": "9.63 µM (active)"}]}, {"compound": "COc1ccc(SC[C@H](CC(C)C)N2CCN(CCc3ccccc3)CCC2=O)cc1", "values": [{"measurement": "EC50", "setting": "[11]", "result": "10.8 µM (inactive)"}]}, {"compound": "CCN1CCCC1Cn1c(-c2ccccc2)nc2c(N3CCOCC3)nc(C)nc21", "note": "(stereo not drawn)", "values": [{"measurement": "AC50", "setting": "Cytochrome P450 3A4", "result": "12.6 µM (inconclusive)"}]}, {"compound": "CCOC(=O)COc1ccc(C(=O)c2ccccc2)c(O)c1", "values": [{"measurement": "IC50", "setting": "cells", "result": "3.02 µM (active)"}]}, {"compound": "CC(=O)Oc1ccc2c(c1)CCC1C2CC[C@]2(C)C(OC(C)=O)CCC12", "note": "(stereo partly drawn)", "values": [{"measurement": "AC50", "setting": "Cytochrome P450 3A4", "result": "31.6 µM (inconclusive)"}]}, {"compound": "COC(=O)[C@@H]1C[C@@]2(O)[C@H](O)[C@H](O)[C@H](O)C[C@H]2N1Cc1ccc(C(F)(F)F)cc1", "values": [{"measurement": "AC50", "setting": "Cytochrome P450 3A4", "result": "20 µM (inconclusive)"}]}, {"compound": "CCOC(=O)/C(C#N)=C/c1ccc(OC(=O)c2ccccn2)cc1", "values": [{"measurement": "IC50", "setting": "[12]", "result": "> 64 µM (inactive)"}]}, {"compound": "NC(=O)c1c(Nc2nc3c(F)cccc3s2)sc2c1CCCC2", "values": [{"measurement": "IC50", "setting": "Leucine aminopeptidase", "result": "81.8 µM (active)"}, {"measurement": "IC50", "setting": "[13]", "result": "2.76 µM (active)"}]}, {"compound": "Cc1ccc(NC(=O)Cn2sc3nc(C)cc(C)c3c2=O)c(Cl)c1", "values": [{"measurement": "IC50", "setting": "[14]", "result": "4.88 µM (active)"}, {"measurement": "IC50", "setting": "[15]", "result": "> 100 µM (inactive)"}, {"measurement": "IC50", "setting": "[16]", "result": "30.5 µM (inactive)"}]}, {"compound": "O=C(CC(Nc1cccc(Cl)c1Cl)C(=O)O)c1ccccc1", "note": "(stereo not drawn)", "values": [{"measurement": "IC50", "setting": "Leucine aminopeptidase", "result": "14.2 µM (active)"}]}, {"compound": "O=C(Oc1ccccc1)c1cccc2cccnc12", "values": [{"measurement": "EC50", "setting": "[17]", "result": "11.5 µM (active)"}, {"measurement": "EC50", "setting": "[4]", "result": "5.75 µM (active)"}, {"measurement": "EC50", "setting": "[18]", "result": "11.3 µM (active)"}, {"measurement": "EC50", "setting": "[7]", "result": "> 20 µM (not active)"}]}]}
